Laboratory results as given in PubChem BioAssay AID504669 (Sanford-Burnham Center for Chemical Genomics, 2011).
pIC50: −log10 of the molar value.

Each molecule was assayed against Breast cancer type 1 susceptibility protein (Homo sapiens) + BRCA1-associated RING domain protein 1 (Homo sapiens) (UniProt P38398+Q99728) (assay: Brca1-Bard1 BiLC signal decrease – cell-based, luminescence, counter-screen for Mdm2/MdmX interaction inhibitor project, dose response (AID 504669)). Settings: SaOS-2 Brca1/Bard1 split-luciferase complementation.
Breast cancer type 1 susceptibility protein (Homo sapiens) + BRCA1-associated RING domain protein 1 (Homo sapiens), sequence (P38398 whole entry, looked up, the tested form may be a part): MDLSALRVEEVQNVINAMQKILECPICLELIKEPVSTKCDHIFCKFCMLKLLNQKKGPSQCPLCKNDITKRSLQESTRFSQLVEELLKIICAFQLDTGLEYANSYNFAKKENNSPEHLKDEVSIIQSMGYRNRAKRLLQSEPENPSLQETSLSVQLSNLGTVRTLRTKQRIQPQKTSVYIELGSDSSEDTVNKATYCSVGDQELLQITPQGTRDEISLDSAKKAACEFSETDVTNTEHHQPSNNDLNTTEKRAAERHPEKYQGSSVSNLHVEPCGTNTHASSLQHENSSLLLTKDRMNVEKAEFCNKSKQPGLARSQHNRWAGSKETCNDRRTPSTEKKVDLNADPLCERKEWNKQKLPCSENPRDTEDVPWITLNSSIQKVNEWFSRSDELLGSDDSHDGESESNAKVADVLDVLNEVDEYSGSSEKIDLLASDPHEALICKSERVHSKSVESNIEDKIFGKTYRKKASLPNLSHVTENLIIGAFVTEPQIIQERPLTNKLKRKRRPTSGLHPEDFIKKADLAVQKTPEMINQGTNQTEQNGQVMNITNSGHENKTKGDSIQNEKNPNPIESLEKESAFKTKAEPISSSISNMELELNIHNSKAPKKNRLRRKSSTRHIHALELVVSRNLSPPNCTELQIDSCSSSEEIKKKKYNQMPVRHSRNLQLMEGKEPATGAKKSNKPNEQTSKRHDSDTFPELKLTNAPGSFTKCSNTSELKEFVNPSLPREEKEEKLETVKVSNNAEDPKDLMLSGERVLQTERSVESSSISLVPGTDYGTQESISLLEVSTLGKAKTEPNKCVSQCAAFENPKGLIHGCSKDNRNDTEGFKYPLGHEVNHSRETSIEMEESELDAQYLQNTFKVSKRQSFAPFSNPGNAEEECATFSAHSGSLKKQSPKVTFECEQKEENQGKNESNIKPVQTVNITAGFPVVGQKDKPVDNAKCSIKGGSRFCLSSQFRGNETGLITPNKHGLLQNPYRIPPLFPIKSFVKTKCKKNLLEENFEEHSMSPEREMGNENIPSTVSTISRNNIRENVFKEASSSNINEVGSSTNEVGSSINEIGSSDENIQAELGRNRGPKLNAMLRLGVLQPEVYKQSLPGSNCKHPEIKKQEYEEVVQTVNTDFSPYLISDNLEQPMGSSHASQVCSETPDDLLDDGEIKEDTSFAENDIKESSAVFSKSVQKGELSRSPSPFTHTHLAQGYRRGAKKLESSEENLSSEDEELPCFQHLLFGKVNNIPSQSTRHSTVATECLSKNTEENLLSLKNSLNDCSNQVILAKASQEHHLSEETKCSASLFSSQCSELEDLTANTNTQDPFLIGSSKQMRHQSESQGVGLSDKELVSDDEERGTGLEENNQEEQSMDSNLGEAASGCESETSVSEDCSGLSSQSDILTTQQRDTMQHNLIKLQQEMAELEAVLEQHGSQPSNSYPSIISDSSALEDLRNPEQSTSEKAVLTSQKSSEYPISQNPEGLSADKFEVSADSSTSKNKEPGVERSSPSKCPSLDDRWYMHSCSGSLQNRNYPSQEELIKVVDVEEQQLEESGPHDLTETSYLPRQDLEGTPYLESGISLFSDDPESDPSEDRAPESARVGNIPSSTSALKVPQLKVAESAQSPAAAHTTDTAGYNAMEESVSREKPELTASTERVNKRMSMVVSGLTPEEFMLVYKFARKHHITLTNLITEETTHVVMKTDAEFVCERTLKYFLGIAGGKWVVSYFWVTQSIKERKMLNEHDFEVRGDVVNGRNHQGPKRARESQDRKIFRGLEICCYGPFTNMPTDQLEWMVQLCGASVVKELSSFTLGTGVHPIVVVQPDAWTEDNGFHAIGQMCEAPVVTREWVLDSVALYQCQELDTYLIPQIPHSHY
Breast cancer type 1 susceptibility protein (Homo sapiens) + BRCA1-associated RING domain protein 1 (Homo sapiens), sequence (Q99728 whole entry, looked up, the tested form may be a part): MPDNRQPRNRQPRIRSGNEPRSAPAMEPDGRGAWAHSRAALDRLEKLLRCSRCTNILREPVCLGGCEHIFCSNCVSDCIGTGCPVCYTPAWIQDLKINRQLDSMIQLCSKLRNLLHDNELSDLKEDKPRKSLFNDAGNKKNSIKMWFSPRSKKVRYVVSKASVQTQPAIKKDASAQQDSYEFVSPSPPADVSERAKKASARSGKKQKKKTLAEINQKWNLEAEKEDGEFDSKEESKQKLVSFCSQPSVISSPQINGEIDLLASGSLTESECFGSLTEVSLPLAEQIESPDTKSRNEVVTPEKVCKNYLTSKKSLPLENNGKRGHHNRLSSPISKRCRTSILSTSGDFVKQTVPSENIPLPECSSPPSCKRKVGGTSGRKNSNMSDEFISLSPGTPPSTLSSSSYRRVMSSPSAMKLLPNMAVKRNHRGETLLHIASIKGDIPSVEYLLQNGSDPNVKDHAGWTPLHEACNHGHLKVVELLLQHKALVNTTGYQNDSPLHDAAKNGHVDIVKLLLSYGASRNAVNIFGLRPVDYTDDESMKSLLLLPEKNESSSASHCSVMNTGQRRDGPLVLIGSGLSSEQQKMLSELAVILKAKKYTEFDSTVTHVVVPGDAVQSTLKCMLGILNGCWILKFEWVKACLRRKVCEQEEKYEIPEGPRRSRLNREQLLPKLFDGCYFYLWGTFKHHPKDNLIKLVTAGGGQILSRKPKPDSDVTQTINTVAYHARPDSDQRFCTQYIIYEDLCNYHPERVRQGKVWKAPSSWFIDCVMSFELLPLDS

| Structure (SMILES) | pIC50 |
| --- | --- |
| CCOC(=O)c1ccc(Nc2nc(N)c3cc(OC)c(OC)cc3n2)cc1 | 4.84 |
| COc1ccc(-c2cc3c(=O)n(CC(=O)NCCCN4CCC(N5CCCCC5)CC4)nc(C)n3n2)cc1 | 4.97 |
| CC1(C)C(=O)Nc2ccccc2N1C(=O)Cn1ncc(Cl)c(Cl)c1=O | 5.08 |
| CC(C)c1cccc(O)c(=O)c1 | 5.41 |
| Cn1nc([N+](=O)[O-])nc1Sc1nnc(-c2ccccc2)o1 | 4.91 |
| O=C(/C=C/c1c(F)cccc1Cl)c1ccc(O)cc1 | 5.18 |
| C/C(=N\Nc1cc(C)nc(-c2ccccc2O)n1)c1ccccc1O | 5.27 |
| O=c1oc2ccccc2cc1-c1cn(-c2ccccc2)c(=S)[nH]1 | 8.45 |
| CCOc1cc(N2CCOCC2)c(OCC)cc1NC(=O)COc1cccc2cccnc12 | 5.29 |
| COCCn1c(C)cc(C2=NNC(=Nc3ccccc3F)SC2)c1C | 6.31 |
| Cc1nc(NC2=NCN(CCCN3CCOCC3)CN2)nc2c(C)cccc12 | 5.25 |
| COc1cc(-c2nc(-c3ccc(NC(=O)c4ccc5c(c4)OCO5)cc3)no2)cc(OC)c1OC | 4.87 |
| O=C(CN1CCCc2ccccc21)N/N=C/c1c(O)ccc2ccccc12 | 5.71 |
| Cc1cccn2c(=O)c3cc(C(=O)NCCc4ccccc4)c(=N)n(Cc4ccco4)c3nc12 | 5.38 |
| CCN1C/C(=C/c2ccc(OC)c(O)c2)C(=O)/C(=C/c2ccc(OC)c(O)c2)C1 | 5.01 |
| CC(=O)c1ccc(-c2ccc(C(=O)Nc3nc(-c4ccccn4)cs3)o2)cc1 | 5.31 |
| CCOC(=O)/C=C/C(=O)OCC(=O)NC(c1ccccc1)c1ccccc1 | 5.41 |
| COc1ccc2c(c1)C1(Nc3ccccc3-c3nc4ccccc4n31)C(=O)N2C (stereo not given) | 5.93 |
| CCN(CC)S(=O)(=O)c1ccc(NC(=O)c2cccnc2Cl)c(NC(=O)c2cccnc2Cl)c1 | 5.00 |
| O=[N+]([O-])c1ccccc1S(=O)(=O)Nc1cccc2cccnc12 | 5.36 |
